Results from patent publication US20070220627A1, “Methods and Compositions for the Selection of a Transgenic Plant” (PIONEER HI-BRED INTERNATIONAL, INC., priority 2006, published 2007).

Test system: Non-transgenic maize seed from inbred N46
Test: Priming matrix additives: Dormex + DMSO
Format: in vivo
Details: 1% DMSO without Dormex, 3 hours, 95 seed
Experimental: Non-transgenic maize seed from inbred N46 were primed with 0, 5, 10, 15, or 30% Dormex® solutions with and without 1% DMSO. For each treatment, 96 seeds were soaked in 50 ml of Dormexe solution in a petri dish for 3 hours at room temperature. After priming the seeds were transferred into pollination bags, and dried overnight in front of a fan. Dried primed seed were then planted into flats to germinate.

SMILES: C[S+](C)[O-] [DMSO]
- Germination %: 93%
- Seedlings: 88
